Experimental data published in PubChem BioAssay AID330 (DTP/NCI, 2004).
“And” between values parts separate entries of the source, which are not always exact repeats. Equal entries are not always repeated. Inconclusive results and toxic doses are left out.

System: P388 leukemia ip, CD2F1 mice, survival T/C
Assay: NCI In Vivo Anticancer Drug Screen. Data for tumor model P388 Leukemia (intraperitoneal) in CD2F1 (CDF1) mice
Details: endpoint: median survival time, higher = longer survival
Outline: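 Mice carrying the transplanted tumor received test compound or vehicle. Survival was recorded in each group, and the value is the treated-group measurement divided by that of the vehicle-treated control group.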

[1] = dose: 60.0 mg/kg/injection, schedule: Q01DX005 (ip), vehicle: saline with Tween-80
[2] = dose: 120.0 mg/kg/injection, schedule: Q01DX005 (ip), vehicle: saline with Tween-80
[3] = dose: 240.0 mg/kg/injection, schedule: Q01DX005 (ip), vehicle: saline with Tween-80
[4] = dose: 50.0 mg/kg/injection, schedule: Q01DX009 (ip), vehicle: suspension in saline
[5] = dose: 100.0 mg/kg/injection, schedule: Q01DX009 (ip), vehicle: suspension in saline
[6] = dose: 25.0 mg/kg/injection, schedule: Q01DX005 (ip), vehicle: saline
[7] = dose: 50.0 mg/kg/injection, schedule: Q01DX005 (ip), vehicle: saline
[8] = dose: 100.0 mg/kg/injection, schedule: Q01DX005 (ip), vehicle: saline
[9] = dose: 50.0 mg/kg/injection, schedule: Q01DX009 (ip), vehicle: saline with Tween-80
[10] = dose: 100.0 mg/kg/injection, schedule: Q01DX009 (ip), vehicle: saline with Tween-80
[11] = dose: 200.0 mg/kg/injection, schedule: Q01DX009 (ip), vehicle: saline with Tween-80
[12] = dose: 50.0 mg/kg/injection, schedule: Q01DX005 (ip), vehicle: Klucel (hydroxypropylcellulose) (HPC)
[13] = dose: 100.0 mg/kg/injection, schedule: Q01DX005 (ip), vehicle: Klucel (hydroxypropylcellulose) (HPC)
[14] = dose: 25.0 mg/kg/injection, schedule: Q01DX009 (ip), vehicle: saline with Tween-80

COC(=O)c1[nH]c(=O)c(C#N)c(C(=O)OC)c1C(=O)/C=C/c1ccccc1
T/C [1]: 100 % of control
T/C [2]: 96 % of control
T/C [3]: 90 % of control

Nc1ccccc1Nc1ccncc1
T/C (dose: 25.0 mg/kg/injection, schedule: Q01DX009 (ip), vehicle: suspension in saline): 97 % of control
T/C [4]: 100 % of control
T/C [5]: 97 % of control

CNC(C(=O)OC(C)(C)C)C(C)C (configuration not stated)
T/C [6]: 98 % of control
T/C [7]: 99 % of control
T/C [8]: 99 % of control

CCOC(=O)CC(C#N)(C#N)CC(=O)OCC
T/C (dose: 50.0 mg/kg/injection, schedule: Q01DX005 (ip), vehicle: saline with Tween-80): 101 % of control
T/C (dose: 100.0 mg/kg/injection, schedule: Q01DX005 (ip), vehicle: saline with Tween-80): 107 % of control
T/C (dose: 200.0 mg/kg/injection, schedule: Q01DX005 (ip), vehicle: saline with Tween-80): 106 % of control

CCOC(=O)C(CSC(c1ccccc1)(c1ccccc1)c1ccccc1)NC(=O)CCNC(=O)c1ccccc1 (configuration not stated)
T/C (dose: 4.0 mg/kg/injection, schedule: Q01DX009 (ip), vehicle: other): 96 % of control
T/C (dose: 8.0 mg/kg/injection, schedule: Q01DX009 (ip), vehicle: other): 112 % of control
T/C (dose: 16.0 mg/kg/injection, schedule: Q01DX009 (ip), vehicle: other): 101 % of control
T/C (dose: 32.0 mg/kg/injection, schedule: Q01DX009 (ip), vehicle: other): 96 % of control
T/C (dose: 50.0 mg/kg/injection, schedule: Q01DX009 (ip), vehicle: other): 104 % of control
T/C (dose: 64.0 mg/kg/injection, schedule: Q01DX009 (ip), vehicle: other): 98 % of control
T/C (dose: 100.0 mg/kg/injection, schedule: Q01DX009 (ip), vehicle: other): 95 % of control
T/C (dose: 200.0 mg/kg/injection, schedule: Q01DX009 (ip), vehicle: other): 90 % of control
T/C (dose: 400.0 mg/kg/injection, schedule: Q01DX009 (ip), vehicle: other): 95 % of control

CC(=O)OC[N+]1(C)CCCCC1
T/C [9]: 111 % of control
T/C [10]: 106 % of control
T/C [11]: 116 % of control

CCc1ccccc1NC(=O)C(C#N)C1=C(Cl)C(=O)c2ccccc2C1=O (configuration not stated)
T/C [1]: 113 % of control
T/C [2]: 106 % of control

N#CC(C(O)c1ccccc1)N1CCCCC1 (configuration not stated)
T/C [4]: 111 % of control
T/C [5]: 100 % of control
T/C (dose: 200.0 mg/kg/injection, schedule: Q01DX009 (ip), vehicle: suspension in saline): 92 % of control

COc1ccc(CCN2C(=O)C(=O)N(c3ccc(C)cc3)C2=O)cc1OC
T/C (dose: 50.0 mg/kg/injection, schedule: Q01DX009 (ip), vehicle: Klucel (hydroxypropylcellulose) (HPC)): 96 % of control
T/C (dose: 100.0 mg/kg/injection, schedule: Q01DX009 (ip), vehicle: Klucel (hydroxypropylcellulose) (HPC)): 97 % of control
T/C (dose: 200.0 mg/kg/injection, schedule: Q01DX009 (ip), vehicle: Klucel (hydroxypropylcellulose) (HPC)): 104 % of control

Cc1ccc2nc(CC(=O)c3ccc(F)cc3)c(=O)[nH]c2c1
T/C [1]: 100 % of control
T/C [2]: 100 % of control
T/C [3]: 107 % of control

O=C1C[C@@H](c2ccccc2)NCCCCN(O)CCCN1
T/C [6]: 106 % of control
T/C [7]: 97 % of control
T/C [8]: 100 % of control

C=C(C)CBr
T/C [1]: 100 % of control
T/C [2]: 100 % of control
T/C [3]: 100 % of control

Nc1ncnc2nc(Cl)[nH]c12
T/C [12]: 91 % of control
T/C [13]: 93 % of control
T/C (dose: 200.0 mg/kg/injection, schedule: Q01DX005 (ip), vehicle: Klucel (hydroxypropylcellulose) (HPC)): 93 % of control

CCCCOCC(=O)OC
T/C [9]: 102 % of control
T/C [10]: 102 % of control
T/C [11]: 107 % of control

Cc1cc(Br)c(NC(=O)c2c(-c3c(Cl)cccc3Cl)noc2C)c(Br)c1
T/C (dose: 60.0 mg/kg/injection, schedule: Q01DX005 (ip), vehicle: Klucel (hydroxypropylcellulose) (HPC)): 88 % of control
T/C (dose: 120.0 mg/kg/injection, schedule: Q01DX005 (ip), vehicle: Klucel (hydroxypropylcellulose) (HPC)): 95 % of control

Cc1ccc(N=Nc2ccc(N(CCCl)CCCl)cc2C)c(C(=O)O)c1
T/C (dose: 12.5 mg/kg/injection, schedule: Q01DX009 (ip), vehicle: saline with Tween-80): 153 % of control and 177 % of control
T/C [14]: 123 % of control

O=NNc1ccc2ccccc2n1
T/C (dose: 3.12 mg/kg/injection, schedule: Q01DX009 (ip), vehicle: water): 122 % of control
T/C (dose: 25.0 mg/kg/injection, schedule: Q01DX009 (ip), vehicle: water): 91 % of control and 94 % of control

NC(CCC(=O)NC(CSCC(=O)Nc1ccc(O)cc1)C(=O)NCC(=O)O)C(=O)O (configuration not stated)
T/C (dose: 60.0 mg/kg/injection, schedule: Q01DX005 (ip), vehicle: saline): 97 % of control
T/C (dose: 120.0 mg/kg/injection, schedule: Q01DX005 (ip), vehicle: saline): 97 % of control
T/C (dose: 240.0 mg/kg/injection, schedule: Q01DX005 (ip), vehicle: saline): 97 % of control

O=c1ccccc(Br)c1O
T/C (dose: 25.0 mg/kg/injection, schedule: Q01DX005 (ip), vehicle: Klucel (hydroxypropylcellulose) (HPC)): 100 % of control
T/C [12]: 106 % of control
T/C [13]: 106 % of control

Cc1ccc(S(=O)(=O)Nn2nnc(-c3ccccc3)n2)cc1
T/C (dose: 50.0 mg/kg/injection, schedule: Q04DX003 (ip), vehicle: Klucel (hydroxypropylcellulose) (HPC)): 98 % of control
T/C (dose: 100.0 mg/kg/injection, schedule: Q04DX003 (ip), vehicle: Klucel (hydroxypropylcellulose) (HPC)): 102 % of control
T/C (dose: 200.0 mg/kg/injection, schedule: Q04DX003 (ip), vehicle: Klucel (hydroxypropylcellulose) (HPC)): 102 % of control

Cc1sc(C)c2c1C[Se]Cc1c(C)sc(C)c1C[Se]C2
T/C (dose: 400.0 mg/kg/injection, schedule: Q01DX001 (ip), vehicle: saline with Tween-80): 87 % of control

CC1=C(O)C(=O)[C@@H]2O[C@@H]2C1=O
T/C (dose: 1.5 mg/kg/injection, schedule: Q01DX007 (ip), vehicle: saline): 111 % of control
T/C (dose: 3.0 mg/kg/injection, schedule: Q01DX007 (ip), vehicle: saline): 122 % of control
T/C (dose: 6.0 mg/kg/injection, schedule: Q01DX007 (ip), vehicle: saline): 122 % of control

O=C(COc1ccc(Cl)cc1Cl)Oc1c(Cl)c(Cl)c(Cl)c(Cl)c1Cl
T/C [14]: 91 % of control
T/C [9]: 91 % of control
T/C [10]: 91 % of control

CC1(C)C2=CCC[C@H]2[C@H]2[C@@H](OC(=O)/C=C/c3ccccc3)CC[C@H]21
T/C (dose: 100.0 mg/kg/injection, schedule: Q01DX001 (ip), vehicle: Klucel (hydroxypropylcellulose) (HPC)): 100 % of control
T/C (dose: 200.0 mg/kg/injection, schedule: Q01DX001 (ip), vehicle: Klucel (hydroxypropylcellulose) (HPC)): 103 % of control
T/C (dose: 400.0 mg/kg/injection, schedule: Q01DX001 (ip), vehicle: Klucel (hydroxypropylcellulose) (HPC)): 103 % of control
